Experimental data: patent US4863933A, “3-hydroxypyridines” (Smith Kline & French Laboratories Limited, priority 1986, dated 1989)

Assays:
[1] = biological target: T1, histamine H1-receptor (guinea pig ileum) (Cavia porcellus, UniProt P31389); test: in vitro guinea pig ileum test (histamine H1-antagonist activity); format: cell-based; settings: isolated guinea pig ileum, magnesium free Tyrode solution, 30° C., 8 min contact, histamine as agonist; read-out: pA2 ileum (converted)
T1 construct: an isolated portion of the guinea pig ileum is secured under tension; from tissue; host or cells: isolated guinea pig ileum
Method: In this test an isolated portion of the guinea pig ileum is secured under tension (500 mg) between an anchorage and a transducer in a 10 ml tissue bath and immersed in magnesium free Tyrode solution with constant aeration at a temperature of 30° C. The output from the transducer is amplified. The amplified output is in turn fed to a flat bed recorder. Measured amounts of histamine are added to the tissue bath so that the histamine concentration increases step-wise until the force of the contraction reaches a maximum. The tissue bath is washed out and filled with fresh magnesium free Tyrode solution containing compound under test. The solution is left in contact with the tissue for 8 min. and measured amounts of histamine are added again until a maximum contraction is recorded. The assay is repeated with increasing concentrations of test compound and the dose of histamine giving 50% of maximum contraction is noted. A dose ratio (DR) was calculated by comparing the concentrations of histamine required to produce 50% maximum response in the absence and in the presence of the antagonist. A plot of Log DR-1 against Log D (the concentration of compound under test) is made and the point of intersection with the Log (DR-1) ordinate is taken as the measure of the activity (pA2 value).

histamine H1-receptor = test: in vivo inhibition of histamine induced bronchoconstriction in anaesthetised guinea pigs; settings: intravenous antagonist dose giving DR-1 = 10, histamine dose-response 5 minutes after antagonist
Method: Guinea pigs of either sex are anaesthetised by intraperitoneal injection of sodium pentobarbitone, 90 mg/kg. The trachea is cannulated. The animal is respired artificially with a fixed volume of air just adequate to inflate the lungs. The pressure needed to inflate the lungs is monitored from the respiratory system using a pressure transducer. Intravenous injection of histamine causes dose-dependent increases in the pressure to inflate the lungs reflecting the bronchoconstrictor action of histamine. Responses to histamine can be antagonised using histamine H1 -receptor antagonists.
Dose-response curves to histamine are established at 20, 40, 80, 160 and 320 nmols/kg. Antagonists are then administered by intravenous injection and 5 minutes later a new histamine dose-response curve is established increasing the doses of histamine as necessary. The effect of the antagonist can be quantified by the displacement, to the right, of the histamine dose-response curve, expressed as a dose-ratio. A series of doses of antagonists may be given to each animal allowing calculation of dose-ratios for each dose of antagonist.

T1 sequence (P31389 whole entry): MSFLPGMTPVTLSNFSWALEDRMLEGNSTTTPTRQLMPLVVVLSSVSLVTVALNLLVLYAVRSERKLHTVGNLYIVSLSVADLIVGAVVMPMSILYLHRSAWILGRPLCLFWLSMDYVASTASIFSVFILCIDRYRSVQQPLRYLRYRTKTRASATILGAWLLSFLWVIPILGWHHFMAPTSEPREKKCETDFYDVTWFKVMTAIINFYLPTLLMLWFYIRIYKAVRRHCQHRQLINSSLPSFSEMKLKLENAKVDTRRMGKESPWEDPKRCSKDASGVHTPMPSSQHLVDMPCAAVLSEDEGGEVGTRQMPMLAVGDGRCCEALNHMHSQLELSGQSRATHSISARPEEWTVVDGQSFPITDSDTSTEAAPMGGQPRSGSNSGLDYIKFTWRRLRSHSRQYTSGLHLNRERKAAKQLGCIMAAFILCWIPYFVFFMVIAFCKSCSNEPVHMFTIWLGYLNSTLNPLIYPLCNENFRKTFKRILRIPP

Kb [1] | Compound | Guinea Pig bronchoconstriction DR-1 = 10 (histamine H1-receptor)
9.55 nM | Oc1cc(Cc2cccnc2)cnc1NCCCC1CCCc2cccnc21 (stereo not shown) [2(e), 2-[3-(5,6,7,8-Tetrahydroquinol-8-yl)propylamino]-3-hydroxy-5-(pyrid-3-ylmethyl)pyridine] | 0.038 μm/kg
1.51 nM | Cc1cc(Br)cnc1CCCNc1ncc(Cc2cccnc2)cc1O [3(h), 2-[3-(5-Bromo-3-methylpyrid-2-yl)-propylamino]-3-hydroxy-5-(pyrid-3-ylmethyl)pyridine] | –
1.95 nM | Cc1cc(Br)cnc1CCCCNc1ncc(Cc2cccnc2)cc1O [1(h), 2-[4-(5-Bromo-3-methylpyrid-2-yl)butylamino]-3-hydroxy-5-(pyrid-3-ylmethyl)pyridine] | 0.016 μm/kg

Compound | Kb [1] | Guinea Pig bronchoconstriction DR-1 = 10 (histamine H1-receptor)
Cc1cc(Br)cnc1CCCCNc1ncc(Cc2cccnc2)cc1OP(=O)(O)O [1(i), 2-[4-(5-Bromo-3-methylpyrid-2-yl)butylamino]-5-(pyrid-3-ylmethyl)pyrid-3-yloxyphosphate] | 8.13 nM | 0.033 μm/kg
